Measured values reported in US6465654B2, “Process for preparing 1-substituted, 2-substituted 1H-imidazo[4, 5-c]quinoline-4-amines” (3M Innovative Properties Company, priority 1991, dated 2002).

Tests used:
interferon-α = assay: Interferon-α induction in human cells, PBM; assay type: cell-based; conditions: 24 hours
interferon = assay: Interferon induction in mice; assay type: in vivo; conditions: mouse serum
Description: One hour later blood samples are withdrawn from the first group. The samples are pooled then centrifuged. The serum is removed from the centrifuge tube, split into two portions, then placed in freezing vials and maintained at −70° C. until analysis. This procedure is repeated at 2 hours with the second group of mice and at 4 hours with the third group of mice. Samples are assayed as described above in connection with the analysis of interferon induction in human cells. The results are expressed in the table below as α/β reference units/mL based on the value obtained for a mouse MU-1-IF standard. Results are shown in the table below wherein results designated as “<” a certain number indicate that interferon was not detectable in amounts above the lower sensitivity level of the assay.

[1] = system: vesicular stomatitis virus (VSV); assay: microbe, parasite or virus in culture; assay type: cell-based; conditions: Vesicular stomatitis virus, read-out: VSV Yield Inhibition

Row | SMILES | Interferon-α induction (interferon-α; dose concentration 0.10 μg/mL) | Interferon-α induction (interferon-α; dose concentration 0.50 μg/mL) | Interferon-α induction (interferon-α; dose concentration 1.0 μg/mL) | Interferon-α induction (interferon-α; dose concentration 5.0 μg/mL) | Interferon induction in mice (interferon; oral 0.3 mg/kg, 1 hr) | Interferon induction in mice (interferon; oral 0.3 mg/kg, 2 hr) | Interferon induction in mice (interferon; oral 0.3 mg/kg, 4 hr) | Interferon induction in mice (interferon; oral 1 mg/kg, 1 hr) | Interferon induction in mice (interferon; oral 1 mg/kg, 2 hr) | Interferon induction in mice (interferon; oral 1 mg/kg, 4 hr) | Interferon induction in mice (interferon; oral 3 mg/kg, 1 hr) | Interferon induction in mice (interferon; oral 3 mg/kg, 2 hr) | Interferon induction in mice (interferon; oral 3 mg/kg, 4 hr) | Interferon induction in mice (interferon; oral 10 mg/kg, 1 hr) | Interferon induction in mice (interferon; oral 10 mg/kg, 2 hr) | Interferon induction in mice (interferon; oral 10 mg/kg, 4 hr) | log reduction at 0.1 µg/mL [1] | log reduction at 0.5 µg/mL [1] | log reduction at 1 µg/mL [1] | also measured
1 | CCOCc1nc2c(N)nc3cc(Cl)ccc3c2n1CC(C)(C)O [Example 85, 4-Amino-7-chloro-α,α-dimethyl-2-ethoxymethyl-1H-imidazo[4,5-c]quinoline-1-ethanol] | 86 α Reference Units/mL | 100 α Reference Units/mL | 220 α Reference Units/mL | 230 α Reference Units/mL | 670 Reference Units/mL | 670 Reference Units/mL | <250 Reference Units/mL | ˜980 Reference Units/mL | 3900 Reference Units/mL | ≦330 Reference Units/mL | 1500 Reference Units/mL | 4300 Reference Units/mL | ˜430 Reference Units/mL | 2200 Reference Units/mL | 5700 Reference Units/mL | ˜570 Reference Units/mL | 5 | 5 | 5 | –
2 | CC(C)(O)Cn1c(CO)nc2c(N)nc3ccccc3c21 [Example 90, 4-Amino-α,α-dimethyl-2-hydroxymethyl-1H-imidazo[4,5-c]quinoline-1-ethanol] | 3000 α Reference Units/mL | 640 α Reference Units/mL | 420 α Reference Units/mL | 580 α Reference Units/mL | <74 Reference Units/mL | <74 Reference Units/mL | <74 Reference Units/mL | <74 Reference Units/mL | <74 Reference Units/mL | <74 Reference Units/mL | ≦130 Reference Units/mL | 570 Reference Units/mL | ≦74 Reference Units/mL | 750 Reference Units/mL | 3500 Reference Units/mL | ≦140 Reference Units/mL | 5 | 4 | 5 | Interferon-α induction (interferon-α; dose concentration 0.01 μg/mL): <6.4 α Reference Units/mL; Interferon-α induction (interferon-α; dose concentration 0.05 μg/mL): 640 α Reference Units/mL
3 | CCOCc1nc2c(N)nc3ccccc3c2n1CC(C)C [Example 40, 2-Ethoxymethyl-1-(2-methylpropyl)-1H-imidazo[4,5-c]quinolin-4-amine] | 680 α Reference Units/mL | 230 α Reference Units/mL | 210 α Reference Units/mL | 210 α Reference Units/mL | 450 Reference Units/mL | 200 Reference Units/mL | <29 Reference Units/mL | 450 Reference Units/mL | 450 Reference Units/mL | 110 Reference Units/mL | 990 Reference Units/mL | 1100 Reference Units/mL | 210 Reference Units/mL | 1600 Reference Units/mL | 1600 Reference Units/mL | 170 Reference Units/mL | – | – | 7 | log reduction at 5 µg/mL [1]: 7; log reduction at 10 µg/mL [1]: 6
4 | COC(C)Cc1nc2c(N)nc3ccccc3c2n1CC(C)C (centres unmarked) [Example 77, 2-(2-Methoxypropyl)-1-(2-methylpropyl)-1H-imidazo[4,5-c]quinolin-4-amine] | 2600 α Reference Units/mL | 390 α Reference Units/mL | 250 α Reference Units/mL | 280 α Reference Units/mL | – | – | – | – | – | – | – | – | – | – | – | – | 3 | 5 | 5 | Interferon-α induction (interferon-α; dose concentration 0.01 μg/mL): <6.3 α Reference Units/mL; Interferon-α induction (interferon-α; dose concentration 0.05 μg/mL): <6.3 α Reference Units/mL
5 | COCCc1nc2c(N)nc3ccccc3c2n1CC(C)C [Example 72, 2-(2-Methoxyethyl)-1-(2-methylpropyl)-1H-imidazo[4,5-c]quinolin-4-amine] | 200 α Reference Units/mL | 210 α Reference Units/mL | 220 α Reference Units/mL | 420 α Reference Units/mL | – | – | – | – | – | – | – | – | – | – | – | – | 5 | 5 | 5 | –
6 | CCOCc1nc2c(N)nc3ccccc3c2n1CCCOC [Example 44, 2-Ethoxymethyl-1-(3-methoxypropyl)-1H-imidazo[4,5-c]quinolin-4-amine] | 3000 α Reference Units/mL | 430 α Reference Units/mL | 430 α Reference Units/mL | 760 α Reference Units/mL | ˜570 Reference Units/mL | 510 Reference Units/mL | <260 Reference Units/mL | 990 Reference Units/mL | <260 Reference Units/mL | <260 Reference Units/mL | 1000 Reference Units/mL | 1500 Reference Units/mL | <260 Reference Units/mL | 1800 Reference Units/mL | 1600 Reference Units/mL | 790 Reference Units/mL | 3 | 4 | 7 | –
7 | CCOCc1nc2c(N)nc3ccccc3c2n1Cc1ccccc1 [Example 93, 2-Ethoxymethyl-1-phenylmethyl-1H-imidazo[4,5-c]quinolin-4-amine] | 850 α Reference Units/mL | 280 α Reference Units/mL | 300 α Reference Units/mL | 300 α Reference Units/mL | 400 Reference Units/mL | 360 Reference Units/mL | ≦150 Reference Units/mL | 660 Reference Units/mL | 1500 Reference Units/mL | 340 Reference Units/mL | 1300 Reference Units/mL | 1300 Reference Units/mL | ˜260 Reference Units/mL | 2100 Reference Units/mL | 2900 Reference Units/mL | 630 Reference Units/mL | 0 | 5 | 5 | –
8 | Nc1nc2ccccc2c2c1nc(CN1CCOCC1)n2Cc1ccccc1 [Example 29, 2-Morpholinomethyl-1-phenylmethyl-1H-imidazo-[4,5-c]quinolin-4-amine] | <5.4 α Reference Units/mL | 440 α Reference Units/mL | 1000 α Reference Units/mL | 580 α Reference Units/mL | <45 Reference Units/mL | <45 Reference Units/mL | <45 Reference Units/mL | <45 Reference Units/mL | <45 Reference Units/mL | <45 Reference Units/mL | <45 Reference Units/mL | <45 Reference Units/mL | <45 Reference Units/mL | <45 Reference Units/mL | <45 Reference Units/mL | <45 Reference Units/mL | – | – | – | –
9 | CC(C)Cn1c(CC(C)O)nc2c(N)nc3ccccc3c21 (stereo not drawn) [Example 81, 4-Amino-α-methyl-1-(2-methylpropyl)-1H-imidazo[4,5-c]quinoline-2-ethanol] | 1100 α Reference Units/mL | 2200 α Reference Units/mL | 460 α Reference Units/mL | 1100 α Reference Units/mL | – | – | – | – | – | – | – | – | – | – | – | – | 5 | 4 | 5 | –
10 | COC(c1ccccc1)c1nc2c(N)nc3ccccc3c2n1CC(C)C (stereo not drawn) [Example 51, 2-(α-Methoxybenzyl)-1-(2-methylpropyl)-1H-imidazo[4,5-c]quinolin-4-amine] | <5 α Reference Units/mL | <5 α Reference Units/mL | 1000 α Reference Units/mL | 330 α Reference Units/mL | – | – | – | – | – | – | – | – | – | – | – | – | 0 | 1 | 5 | –
